{
  "source": "the supplement of paper PMC10307832",
  "assay_in_all_cases": "relative viability (nuclei count vs DMSO), 5 days (fraction); higher = more cells survive",
  "key": {"[1]": {"compound": "COc1cccc2c1C(=O)c1c(O)c3c(c(O)c1C2=O)C[C@@](O)(C(=O)CO)C[C@@H]3O[C@H]1C[C@H](N)[C@H](O)[C@H](C)O1 [Doxorubicin] + N=C(N)NC(=N)NCCc1ccccc1 [Phenformin] (partner 250 µM)", "how_it_was_run": "(§1)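 Lung cancer cell lines in 1536-well plates were dosed by pin tool the day after seeding, either with one drug alone or with a fixed anchor-drug dose plus five library-drug doses (not always all listed) in √10 steps. After 5 days, cells were fixed and their nuclei stained in one step (final 0.05% Triton X-100, 1% formaldehyde, 1 ug/ml Hoechst), then counted on 4× images. Relative viability is the nuclei count in treated wells divided by that in vehicle wells. Values are medians of duplicate plates.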"}, "[2]": {"compound": "COc1cccc2c1C(=O)c1c(O)c3c(c(O)c1C2=O)C[C@@](O)(C(=O)CO)C[C@@H]3O[C@H]1C[C@H](N)[C@H](O)[C@H](C)O1 [Doxorubicin] + Nc1ncn([C@H]2C[C@H](O)[C@@H](CO)O2)c(=O)n1 [Decitabine] (partner 2 µM)", "how_it_was_run": "as §1"}, "[3]": {"compound": "COc1cccc2c1C(=O)c1c(O)c3c(c(O)c1C2=O)C[C@@](O)(C(=O)CO)C[C@@H]3O[C@H]1C[C@H](N)[C@H](O)[C@H](C)O1 [Doxorubicin] + O=C(CCCCCCC(=O)Nc1ccccc1)NO [Vorinostat] (partner 1 µM)", "how_it_was_run": "as §1"}, "[4]": {"compound": "COC1=C(C=C(C=C1)C2=CC3=NC=CN3C(=N2)NC4=C(C=CC=N4)C(=O)N)OC [BAY61-3606] + CC(=O)c1c(C)c2cnc(Nc3ccc(N4CCNCC4)cn3)nc2n(C2CCCC2)c1=O [Palbociclib] (partner 0.5 µM)", "how_it_was_run": "as §1"}},
  "data": [
    {"cell line": "UMC-11", "values": [
      {"measurement": "relative viability", "setting": "[1]; first compound 0.001 µM", "value": 0.307},
      {"measurement": "relative viability", "setting": "[1]; first compound 0.003162 µM", "value": 0.247},
      {"measurement": "relative viability", "setting": "[1]; first compound 0.01 µM", "value": 0.313},
      {"measurement": "relative viability", "setting": "[1]; first compound 0.03162 µM", "value": 0.207},
      {"measurement": "relative viability", "setting": "[1]; first compound 0.1 µM", "value": 0.233},
      {"measurement": "relative viability", "setting": "[2]; first compound 0.001 µM", "value": 0.641},
      {"measurement": "relative viability", "setting": "[2]; first compound 0.003162 µM", "value": 0.497},
      {"measurement": "relative viability", "setting": "[2]; first compound 0.01 µM", "value": 0.619},
      {"measurement": "relative viability", "setting": "[2]; first compound 0.03162 µM", "value": 0.385},
      {"measurement": "relative viability", "setting": "[2]; first compound 0.1 µM", "value": 0.41},
      {"measurement": "relative viability", "setting": "[3]; first compound 0.001 µM", "value": 0.52},
      {"measurement": "relative viability", "setting": "[3]; first compound 0.003162 µM", "value": 0.354},
      {"measurement": "relative viability", "setting": "[3]; first compound 0.01 µM", "value": 0.432},
      {"measurement": "relative viability", "setting": "[3]; first compound 0.03162 µM", "value": 0.329},
      {"measurement": "relative viability", "setting": "[3]; first compound 0.1 µM", "value": 0.37},
      {"measurement": "relative viability", "setting": "[4]; first compound 0.02 µM", "value": 0.352},
      {"measurement": "relative viability", "setting": "[4]; first compound 0.06325 µM", "value": 0.319},
      {"measurement": "relative viability", "setting": "[4]; first compound 0.2 µM", "value": 0.304},
      {"measurement": "relative viability", "setting": "[4]; first compound 0.6325 µM", "value": 0.361},
      {"measurement": "relative viability", "setting": "[4]; first compound 2 µM", "value": 0.339}
    ]}
  ]
}
